Measurements reported in article PMC6520677, “Marine Fungi from the Sponge Grantia compressa: Biodiversity, Chemodiversity, and Biotechnological Potential” (Marine Drugs, 2019).
Values after ≈ are worked out from the molar mass of the structure shown. Like-named read-outs stand apart in the source and are kept apart here.

Experiments:
[1] = tested on: Staphylococcus aureus ATCC 29213; assay: MIC, broth microdilution (CLSI); format: cell-based
[2] = tested on: methicillin-resistant Staphylococcus aureus (MRSA) Monza-PFI; assay: MIC, broth microdilution (CLSI); format: cell-based
[3] = tested on: fluoroquinolone-resistant S. aureus Monza-FD1; assay: MIC, broth microdilution (CLSI); format: cell-based, Staphylococcus aureus
[4] = tested on: Enterococcus faecalis ATCC 29212; assay: MIC, broth microdilution (CLSI); format: cell-based
[5] = tested on: Streptococcus pneumoniae ATCC 49619; assay: MIC, broth microdilution (CLSI); format: cell-based
[6] = tested on: macrolide-resistant S. pneumoniae Monza-82; assay: MIC, broth microdilution (CLSI); format: cell-based, Streptococcus pneumoniae; details: for sensitivity of the strain to the compound: S. pneumoniae Monza-82
[7] = tested on: Pseudomonas aeruginosa ATCC 27853; assay: MIC, broth microdilution (CLSI); format: cell-based
[8] = tested on: Escherichia coli ATCC 25922; assay: MIC, broth microdilution (CLSI); format: cell-based
[9] = tested on: macrolide-resistant S. pneumoniae Monza-82; assay: MBC determination (plating of MIC wells); format: cell-based, Streptococcus pneumoniae; details: for MBC: Streptococcus pneumoniae, S. pneumoniae Monza 82 (macrolide-resistant), read-out: MBC
Method: (§1) Plates were incubated at 37 °C in aerobic conditions or in 5% CO2 atmosphere and checked for bacterial growth after 24 h.

[10] = tested on: influenza A virus strain A/Puerto Rico/8/34 (IAV); assay: Plaque reduction assay (PRA) on MDCK cells; format: cell-based; details: Influenza A virus, MDCK, 48 h; read-out: inhibition of replication of IAV
[11] = tested on: herpes simplex virus 1 (HSV-1) clinical isolate; assay: Plaque reduction assay (PRA) on VERO cells; format: cell-based; details: 48 h p.i.
[12] = tested on: Staphylococcus aureus ATCC 29213; assay: MBC determination (plating of MIC wells); format: cell-based; details: ATCC29213, S. aureus ATCC 29213, read-out: MBC
Method: as §1

[13] = tested on: fluoroquinolone-resistant S. aureus Monza-FD1; assay: MBC determination (plating of MIC wells); format: cell-based; details: Staphylococcus aureus; S. aureus Monza-FD1 (fluoroquinolone-resistant); read-out: MBC
Method: as §1

[14] = tested on: methicillin-resistant Staphylococcus aureus (MRSA) Monza-PFI; assay: MBC determination (plating of MIC wells); format: cell-based; details: S. aureus Monza-PFI (MRSA), read-out: MBC
Method: as §1

[15] = tested on: Mycobacterium tuberculosis; set-up: method as in ref 86 Ganihigama et al.; details: ref 86 Ganihigama et al.; cited from earlier work
S. aureus strains = assay: MIC, summary in text for S. aureus strains; details: Staphylococcus aureus
Method: (§2) Representatives of Gram-positive and Gram-negative bacteria were selected for the antimicrobial susceptibility tests. Three Gram-positive reference strains (Staphylococcus aureus ATCC 29213, Streptococcus pneumoniae ATCC 49619, and Enterococcus faecalis ATCC 29212) and two Gram-negative reference strains (Escherichia coli ATCC 25922 and Pseudomonas aeruginosa ATCC 27853) were used. Furthermore, antibacterial activity of the isolated compounds was also assessed against recently isolated clinical strains, selected and characterized as resistant or multidrug-resistant (MDR), from the MicroMiB collection owned and maintained by the Laboratory of Clinical Microbiology and Virology of the University of Milano-Bicocca, Monza, Italy: a methicillin-resistant Staphylococcus aureus (MRSA) Monza-PFI, a fluoroquinolone-resistant S. aureus Monza-FD1, and a macrolide-resistant S. pneumoniae Monza-82.
(§3) MICs were determined following Clinical and Laboratory Standards Institute (CLSI) guidelines for the broth microdilution method [33]. […]
(§4) The plates were incubated at 37 °C for 18–24 h. After the incubation, each well was checked for the absence of bacterial pellets and the clearness of the solution; then, the MIC value (μg/mL), defined as the lowest concentration of antimicrobial agent causing visible inhibition of bacterial growth, was determined.

in vitro [16] = details: dog
Method: (§5) African green monkey kidney cells (VERO, ATCC-American Type Culture Collection CCL-81) and Madin Darby Canine Kidney cells (MDCK, ATCC® CRL-2936™) were propagated in Dulbecco’s modified Eagle medium (DMEM; Euroclone), supplemented with 10% fetal bovine serum (FBS; Euroclone), 2 mM L-glutamine, 1 mM sodium pyruvate, 100 U/mL penicillin, and 100 μg/mL streptomycin sulfate.
(§6) The plates were incubated for 48 h at 37 °C, and then 100 μL of CellTiter-Glo reagent (Promega) was added to lyse the cells and to determine cell viability according to the producer’s instructions.

in vitro [17] = details: African green monkey
Method: as §5, §6

[18] = tested on: reference strains and multidrug-resistant isolates; assay: Antibacterial activity, whole panel (MIC); details: concentrations tested 0.015–32 μg/mL
Method: as §2, §3, §4

Micrococcus luteus = tested on: Micrococcus luteus; set-up: method as in PMID 16261521; details: cited from earlier work
Klebsiella pneumoniae = tested on: Klebsiella pneumoniae; set-up: method as in PMID 16261521; details: cited from earlier work
P. aeruginosa = tested on: P. aeruginosa; set-up: method as in PMID 16261521; details: cited from earlier work
bacteria = tested on: bacteria; set-up: method as in ref 20 Zin et al.; details: ref 20 Zin et al.; cited from earlier work
[19] = ATCC29213, S. aureus ATCC 29213, read-out: MIC
[20] = S. aureus Monza-PFI (MRSA), read-out: MIC
[21] = Staphylococcus aureus, S. aureus Monza-FD1 (fluoroquinolone-resistant), read-out: MIC
[22] = ATCC29212, E. faecalis ATCC 29212, read-out: MIC
[23] = ATCC49619, S. pneumoniae ATCC 49619, read-out: MIC
[24] = Streptococcus pneumoniae, S. pneumoniae Monza 82 (macrolide-resistant), read-out: MIC
[25] = ATCC27853, P. aeruginosa ATCC 27853, read-out: MIC
[26] = ATCC25922, E. coli ATCC 25922, read-out: MIC

Row | Structure (SMILES) | MIC [1, 19] [µg/mL] | MIC [2, 20] [µg/mL] | MIC [3, 21] [µg/mL] | MIC [4, 22] [µg/mL] | MIC [5, 23] [µg/mL] | MIC [6, 24] [µg/mL] | MIC [7, 25] [µg/mL] | MIC [8, 26] [µg/mL] | MBC [9] [µg/mL] | other results
1 | C=CC(C)(C)c1[nH]c2cc(CC=C(C)C)ccc2c1/C=C1\NC(=O)[C@H](C)NC1=O [Neoechinulin D (7), neoechinulin D] | > 128 | > 128 | > 128 | > 128 | > 128 | 64 (≈ 163 µM) | > 128 | > 128 | > 128 | sensitivity of the strain to the compound [6]: showed sensitivity; inhibition at 50 µg/mL [10]: 70%; inhibition at 50 µg/mL ([11]; Human alphaherpesvirus 1, compound at 50 µg/mL, read-out: inhibition of HSV-1 replication): 100%; inhibition of HSV-1 replication ([11]; compound at 50 µg/mL): total inhibition
2 | C[C@@H]1NC(=O)[C@H](Cc2c[nH]c3ccccc23)NC1=O [Cyclo-L-Trp-L-Ala (10), cyclo-L-Trp-L-Ala] | > 128 | > 128 | > 128 | > 128 | > 128 | > 128 | > 128 | > 128 | – | –
3 | COc1cc(O)cc2cc3c(c(O)c12)C(=O)C[C@](C)(O)C3 [Asperflavin (8), asperflavin] | 64 (≈ 222 µM) | 128 (≈ 444 µM) | 64 (≈ 222 µM) | > 128 | > 128 | 32 (≈ 111 µM) | > 128 | > 128 | 128 (≈ 444 µM) | MBC [12]: > 128 µg/mL; MBC [13]: > 128 µg/mL; MBC [14]: > 128 µg/mL; bactericidal activity ([9]; S. pneumoniae Monza-82 strain only): positive results; MIC [15]: 25 µg/mL (≈ 86.7 µM); MIC (S. aureus strains): 64 µg/mL (≈ 222 µM)
4 | CNC(C)C1CCC(N)C(OC2C(N)CC(N)C(OC3OCC(C)(O)C(NC)C3O)C2O)O1 (centres unmarked) [Gentamicin, reference compound] | 0.5 (≈ 1.05 µM) | > 128 | 1 (≈ 2.09 µM) | > 128 | – | – | 1 (≈ 2.09 µM) | 0.5 (≈ 1.05 µM) | – | –
5 | CC(=O)O[C@H]1C[C@@]2(C)[C@@H](C[C@@H](O)[C@H]3[C@@]4(C)CC[C@@H](O)[C@@H](C)[C@@H]4CC[C@@]32C)/C1=C(\CCC=C(C)C)C(=O)O [Fusidic acid, fusidic acid, reference compound] | 0.12 (≈ 0.232 µM) | – | – | 4 (≈ 7.74 µM) | 4 (≈ 7.74 µM) | – | – | – | – | –
6 | CN(C)[C@@H]1C(O)=C(C(N)=O)C(=O)[C@@]2(O)C(O)=C3C(=O)c4c(O)cccc4[C@@](C)(O)[C@H]3C[C@@H]12 [Tetracycline, tetracycline, reference compound] | 0.12 (≈ 0.27 µM) | 1 (≈ 2.25 µM) | 1 (≈ 2.25 µM) | 8 (≈ 18 µM) | 0.12 (≈ 0.27 µM) | ≤ 0.06 | 8 (≈ 18 µM) | 1 (≈ 2.25 µM) | – | –
7 | COc1cc(O)c2c(c1)C(=O)c1cc(C)c(C(=O)O)c(O)c1C2=O [Cinnalutein (9), cinnalutein] | > 128 | > 128 | 128 (≈ 390 µM) | > 128 | > 128 | 32 (≈ 97.5 µM) | > 128 | > 128 | > 128 | MIC ([3]; S. aureus Monza-FD1 (fluoroquinolone-resistant)): 128 µg/mL (≈ 390 µM); MIC ([6]; S. pneumoniae Monza 82 (macrolide-resistant)): 32 µg/mL (≈ 97.5 µM); MBC [13]: > 128 µg/mL
8 | CCCCCCCc1c(O)cc(CC=C(C)C)c(O)c1C=O [Flavoglaucin (5), flavoglaucin] | > 32 | > 32 | > 32 | > 32 | > 32 | > 32 | > 32 | > 32 | – | CC50 at 48 h (in vitro [16]): < 12.5 µg/mL; CC50 at 48 h (in vitro [17]): < 12.5 µg/mL; antibacterial activity [18]: did not show antibacterial activity
9 | C=CC(C)(C)c1[nH]c2c(CC=C(C)C)cc(CC=C(C)C)cc2c1C[C@@H]1NC(=O)[C@H](C)NC1=O [Echinulin (1), echinulin] | – | – | – | – | – | – | – | – | – | MIC ([1]; ATCC29213): > 128 µg/mL; MIC ([2]; MRSA): > 128 µg/mL; MIC ([3]; Staphylococcus aureus): > 128 µg/mL; MIC ([4]; ATCC29212): > 128 µg/mL; MIC ([5]; ATCC49619): > 128 µg/mL; MIC ([6]; Streptococcus pneumoniae): > 128 µg/mL; MIC ([7]; ATCC27853): > 128 µg/mL; MIC ([8]; ATCC25922): > 128 µg/mL
10 | CC[C@H]1OC(=O)[C@H](C)[C@@H](O[C@H]2C[C@@](C)(OC)[C@@H](O)[C@H](C)O2)[C@H](C)[C@@H](O[C@@H]2O[C@H](C)C[C@H](N(C)C)[C@H]2O)[C@](C)(O)C[C@@H](C)C(=O)[C@H](C)[C@@H](O)[C@]1(C)O [Erythromycin, erythromycin, reference compound] | 0.5 (≈ 0.681 µM) | 8 (≈ 10.9 µM) | 0.5 (≈ 0.681 µM) | 2 (≈ 2.73 µM) | 0.12 (≈ 0.164 µM) | 16 (≈ 21.8 µM) | – | – | – | –
11 | COc1cc(O)c2c(c1)C(=O)c1cc(C)cc(O)c1C2=O [Physcion (3), physcion] | > 32 | > 32 | > 32 | > 32 | > 32 | 16 (≈ 56.3 µM) | > 32 | > 32 | > 32 | sensitivity of the strain to the compound [6]: showed sensitivity; inhibition at 25 µg/mL [10]: 80%; inhibition at 25 µg/mL ([11]; Human alphaherpesvirus 1, compound at 25 µg/mL, read-out: inhibition of HSV-1 replication): 100%; inhibition of HSV-1 replication ([11]; compound at 25 µg/mL): total inhibition; MIC (Micrococcus luteus): 200 µg/mL (≈ 704 µM); MIC (Klebsiella pneumoniae): 250 µg/mL (≈ 879 µM); MIC (P. aeruginosa): 200 µg/mL (≈ 704 µM); antibacterial activity (bacteria): no antibacterial activity
